Laboratory results: US10112932B2, “Benzoxazepin oxazolidinone compounds and methods of use” (Genentech, Inc., priority 2015, dated 2018)
pEC50, pIC50, pKi: −log10 of the molar value. Like-named read-outs stand apart in the source and are kept apart here.

Experiments:
[1] = Multiple day oral dosing in dogs (exposure, clinical and anatomic pathology); type: in vivo, Beagle dogs; conditions: for concentration at 14 day / Cmax / AUC(0-t): Beagle, plasma; for concentration at 14 day / Cmax / AUC(0-t) / Cmax D14, free / Exposure AUC0-24 hr, D14, free / Exposure multiples (free, AUC) / Exposure multiples (total, AUC) / Exposure multiples to CD69 IC50 (total, Cmin): dog; for concentration at 14 day: oral, read-out: Cmin D14, total; for Cmax / AUC(0-t): po; for Cmax: read-out: Cmax D14, total; for AUC(0-t): read-out: Exposure AUC0-24 hr, D14, total; for Exposure multiples (free, AUC) / Exposure multiples (total, AUC): vs TGI60 from 21-day HCC1954 TGI study; for Exposure multiples to CD69 IC50 (total, Cmin): whole-blood CD69 IC50 = 142 nM
From the text: The extent and severity of findings is consistent with increased inhibition of PI3Kδ (delta) at exposure multiples over CD69 IC50 for the comparator compounds.

[2] = test system: HCC1954 cells (PI3Kα mutant H1047R); experiment: Cell viability / antiproliferative assay in HCC1954 cells (Example 903); conditions: Homo sapiens, HCC1954, 96 h, read-out: HCC1954 antiproliferative EC50
Procedure: Cells were seeded (1,500 per well) in 384-well plates for 16 h. On day 2, nine serial 1:3 compound dilutions were made in DMSO in a 96-well plate. The compounds were then further diluted into growth media using a Rapidplate robot (Zymark Corp.). […] After 4 d, relative numbers of viable cells were measured by luminescence using Cell Titer-Glo (Promega) according to the manufacturer's instructions and read on a Wallac Multilabel Reader (Perkin-Elmer). EC50 values were calculated using Prism 6.0 software (GraphPad).

[3] = test system: SW48 (E545K) PI3Kα mutant cells, P-PRAS40; experiment: Inhibition of P-PRAS40 in SW48 isogenic cells, helical domain mutant E545K (Example 902); conditions: Homo sapiens, SW48, 24 h, read-out: P-PRAS40 SW48 (E545K) EC50
[4] = Unbound fraction in dog plasma (Fu); type: in vitro ADME; conditions: read-out: Fu dog (unbound fraction in species plasma)
[5] = Unbound fraction in mouse plasma (Fu); type: in vitro ADME; conditions: read-out: Fu mouse (unbound fraction in species plasma)
[6] = test system: HDQ-P1 (PI3Kα wild-type), p-PRAS40; experiment: p-PRAS40 MSD assay in HDQ-P1 cells (Example 907); conditions: Homo sapiens, HDQ-P1, 24 h, read-out: P-PRAS40 HDQ-P1 MSD EC50
Procedure: The following day, cells are treated with compounds and incubated for 24 hours. […] The HCC1954 cell line expresses mutant PI3Kα (E545K) vs WT in HDQP1.
The MSD platform provides a method of measuring the phosphorylated levels of pPRAS40 in a single sample. […] Following cell lysis, PRAS40 in samples is allowed to bind to the capture antibodies.
Procedure: • Compounds prepared at concentration of 2 mM in DMSO.
Day 1: Cell Plating • 1. Seed 12.500 cells in 45 ul medium for each cell line. Allow cells to settle/attach to plate for 15-20 min at room temperature. • 2. Incubate cells overnight in a 37° C. humidity and CO2 controlled incubator.
Day 2: Compound Plate Preparation and Compound Treatment • 1. For the 10× intermediate dilution plate: add 95 ul serum-free media into a standard profile greiner 384 well polypropylene plate. • 2. Use biomek Fx protocol for intermediate compound dilution in media and addition to cells: “SLS Intermed Dil Add 5 ul to Cells Jul. […] The method then transfers 5 ul from the intermediate dilution plate to the appropriate cell plate. • 3. Incubate the treated cells at 37 degrees for 24 hours in a 5% CO2 humidified incubator.
Block the MSD assay plate with 50 ul 3% Blocker A/1×MSD Wash Buffer 1-2 hr at room temp. […] Blocking buffer A contains 1×MSD wash buffer. 20 mL 1× Tris Wash buffer and 600 mg Blocker A.
Aspirate Media and Lyse the Cells • 1. Lyse the cells in 50 μl lysis buffer. Lyse at room temperature for 10-20 minutes on plate shaker. • 2. While cells are lysing, wash blocked plates 1×MSD wash buffer. • 3. Transfer 42 ul lysates (21+21 μL) to a blocked MSD pPRAS40 assay plate. • 4. Seal MSD plates and incubate at 4° C. with shaking overnight.
Day 4: MSD Assay/Detection • 8. Make a solution of 1% Blocker A in 1×MSD wash buffer. (20 mL 1× Tris Wash buffer and 200 mg Blocker A (1% w/v). This solution can be stored at 4° C. for up to one month. • 9. Wash the MSD plates with 1×MSD wash buffer. • 10. Add 10 μl of the diluted SULFO-TAG detection antibody to the plates. Incubate for 1 hr with shaking at room temp.
Wash the plates 4× with 1×MSD wash buffer. • 12. Add 35 μl 1× Read buffer with reverse pipetting to avoid bubbles. • 13. Read the plate immediately on the MSD SECTOR instrument.

[7] = test system: SW48 (H1047R) PI3Kα mutant cells, P-PRAS40; experiment: Inhibition of P-PRAS40 in SW48 isogenic cells, kinase domain mutant H1047R (Example 902); conditions: Homo sapiens, SW48, 24 h, read-out: P-PRAS40 SW48 (H1047R) EC50
[8] = test system: SW48 (parental) PI3Kα wild-type cells, P-PRAS40; experiment: Inhibition of P-PRAS40 in SW48 isogenic cells, PI3Kα wild-type parental (Example 902); conditions: Homo sapiens, SW48, 24 h, read-out: P-PRAS40 SW48 (parental) EC50
[9] = test system: CD69 expression in CD19+ CD27− B cells; experiment: B-cell a-IgM CD69 expression, human whole blood assay (Example 906); type: cell-based
Procedure: The expression of CD69 in B-cells resultant from a-IgM treatment is believed to be driven by signaling through PI3Kδ (delta).
Human whole blood was dispensed into 96-deep well plates at 100 μl per well. Compounds were diluted in DMSO to generate the desired stock concentrations and then further diluted in PBS to the desired working concentration and added in a volume of 5.5 μL per well. Samples were then incubated for 1 hour at 37° C. under 5% CO2 before the addition of 5 μg (10 μl per well) of Goat anti IgM F(ab′)2 (Southern Biotech, AL), and incubated for 18 hours at 37° C. under 5% CO2. All treatments were tested in duplicate.
In addition, human whole blood from each donor was stained with isotype-matched fluorescent control antibodies. After the addition of the appropriate antibody cocktail the whole blood samples were stained for 30 minutes in the dark and then lysed using BD Pharm Lysis (BD Bioscience, NJ). The resulting samples were then washed with FACS Buffer (Phosphate Buffered Saline (Ca:Mg++ free), 1 mM EDTA, 25 mM HEPES pH 7.0, 1% Fetal Bovine Serum (Heat-Inactivated) and fixed in FACS Buffer supplemented with 0.1% Formaldehyde (Polysciences Inc, PA) and 0.1% Pluronic F-68 (Sigma, MO). Data were acquired using a BD LSR-II (BD Biosciences) with BD FACSDiva software.
Cells were assessed by flow cytometry for levels of CD19, CD27 and CD69 using BD FACSDiva Software and the CD69 MFI-Mean of the CD19^+ CD27^− lymphocyte population was determined.

[10] = test system: HCC1954 (PI3Kα mutant H1047R), p-PRAS40; experiment: p-PRAS40 MSD assay in HCC1954 cells (Example 907); conditions: Homo sapiens, HCC1954, 24 h, read-out: P-PRAS40 HCC1954 MSD EC50
[11] = target: PI3Kα (Homo sapiens (Human), UniProt P42336); experiment: Biochemical inhibition of PI3K alpha (ADP-Glo lipid kinase assay, Example 901); conditions: geometric mean of minimum three experiments unless footnoted
Sequence of PI3Kα (P42336 whole entry, canonical isoform): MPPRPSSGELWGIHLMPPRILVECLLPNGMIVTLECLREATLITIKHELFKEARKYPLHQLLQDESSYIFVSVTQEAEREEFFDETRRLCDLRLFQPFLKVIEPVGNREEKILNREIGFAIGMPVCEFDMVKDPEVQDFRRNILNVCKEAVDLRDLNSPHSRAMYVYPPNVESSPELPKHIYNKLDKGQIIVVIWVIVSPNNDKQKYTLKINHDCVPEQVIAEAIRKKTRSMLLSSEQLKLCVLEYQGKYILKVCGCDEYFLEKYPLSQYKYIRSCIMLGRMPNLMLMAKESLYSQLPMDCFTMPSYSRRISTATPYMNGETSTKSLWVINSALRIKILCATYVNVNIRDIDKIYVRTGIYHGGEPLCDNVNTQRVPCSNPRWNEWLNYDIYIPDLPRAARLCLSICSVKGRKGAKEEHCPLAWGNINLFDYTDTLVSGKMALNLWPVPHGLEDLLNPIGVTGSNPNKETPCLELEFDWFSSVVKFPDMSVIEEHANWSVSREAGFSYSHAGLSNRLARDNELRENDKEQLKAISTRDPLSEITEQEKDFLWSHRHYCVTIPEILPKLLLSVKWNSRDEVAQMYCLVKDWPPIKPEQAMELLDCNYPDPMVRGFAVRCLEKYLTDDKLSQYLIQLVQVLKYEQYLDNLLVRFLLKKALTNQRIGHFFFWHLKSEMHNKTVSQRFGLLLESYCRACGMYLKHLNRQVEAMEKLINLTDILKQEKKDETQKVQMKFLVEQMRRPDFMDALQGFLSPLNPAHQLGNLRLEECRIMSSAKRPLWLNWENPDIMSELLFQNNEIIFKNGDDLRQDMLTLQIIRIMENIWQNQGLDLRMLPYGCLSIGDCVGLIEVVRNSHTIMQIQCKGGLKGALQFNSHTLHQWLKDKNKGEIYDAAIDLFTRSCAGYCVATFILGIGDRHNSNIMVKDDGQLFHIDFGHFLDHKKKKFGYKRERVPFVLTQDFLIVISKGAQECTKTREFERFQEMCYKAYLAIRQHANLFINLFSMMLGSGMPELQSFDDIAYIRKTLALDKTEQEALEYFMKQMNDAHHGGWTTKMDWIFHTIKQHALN
Sequence of PI3Kα (P27986 whole entry partner, canonical isoform): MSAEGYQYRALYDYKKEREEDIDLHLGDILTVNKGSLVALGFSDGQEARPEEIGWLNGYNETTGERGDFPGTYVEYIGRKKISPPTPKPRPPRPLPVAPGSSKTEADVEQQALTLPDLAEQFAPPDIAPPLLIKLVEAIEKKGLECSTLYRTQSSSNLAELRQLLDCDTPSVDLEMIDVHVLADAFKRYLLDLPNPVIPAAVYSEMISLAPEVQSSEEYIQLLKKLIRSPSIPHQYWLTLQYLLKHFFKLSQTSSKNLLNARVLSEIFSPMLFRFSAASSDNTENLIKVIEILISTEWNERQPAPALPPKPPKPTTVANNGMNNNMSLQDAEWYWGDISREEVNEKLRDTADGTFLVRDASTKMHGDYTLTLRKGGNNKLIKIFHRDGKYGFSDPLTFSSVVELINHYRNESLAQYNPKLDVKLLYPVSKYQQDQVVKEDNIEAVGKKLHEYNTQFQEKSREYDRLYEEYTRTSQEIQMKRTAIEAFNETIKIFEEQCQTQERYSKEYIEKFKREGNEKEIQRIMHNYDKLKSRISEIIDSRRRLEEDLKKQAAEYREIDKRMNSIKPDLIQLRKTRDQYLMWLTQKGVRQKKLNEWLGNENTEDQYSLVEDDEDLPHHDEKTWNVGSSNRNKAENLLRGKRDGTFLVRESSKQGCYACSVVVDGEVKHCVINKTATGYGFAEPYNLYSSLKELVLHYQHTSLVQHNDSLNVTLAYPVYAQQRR
Procedure: Reactions are carried out using the following conditions for each PI3K isoform as in Table 5.
All reactions are carried out at room temperature. […] The reaction is started by the addition of 2 μl ATP/MgCl2. The kinase reaction buffer contains 50 mM HEPES, 50 mM NaCl 3 mM MgCl2, 0.01% BSA, 1% DMSO, and enzyme and substrate concentrations as indicated in the above table. The reaction is stopped by the addition of 10 μL ADP-Glo reagent. Plates are read in a Perkin Elmer Envision system using luminescence mode. 10 point dose response curves are generated for each test compound. Ki values for each compound are determined using the Morrison Equation.

[12] = target: p110α (Homo sapiens (Human), UniProt P42336, H1047R); experiment: p110α degradation, Western blot in HCC1954 and HDQ-P1 cells after 24 hour treatment (Example 905); type: cell-based; conditions: HCC1954 (PI3Kα mutant H1047R) vs. HDQ-P1 (PI3Kα wild-type)
Sequence of p110α (P42336 whole entry H1047R): as the sequence (P42336 whole entry, canonical isoform) above, with H1047R counted along it
Sequence of p110α (P27986 whole entry partner): as the sequence (P27986 whole entry partner, canonical isoform) above
Procedure: Cell lines were grown under standard tissue culture conditions in RPMI media with 10% fetal bovine serum, 100 U/mL penicillin, and 100 μg/mL streptomycin.

[13] = test system: MCF7 cells (PI3Kα mutant E545K); experiment: Cell viability / antiproliferative assay in MCF7 cells (Example 903); type: cell-based; conditions: Homo sapiens, MCF7, 96 h, read-out: MCF7 antiproliferative EC50

Question: Which concentration at 14 day ([1]; 0.1 mg/kg/day) does the source give for NC(=O)[C@@H](Nc1ccc2c(c1)OCCn1cc(N3C(=O)OC[C@H]3C(F)F)nc1-2)C1CC1 [Compound 103, (S)-2-Cyclopropyl-2-((2-((S)-4-(difluoromethyl)-2-oxooxazolidin-3-yl)-5,6-dihydrobenzo[f]imidazo[1,2-d][1,4]oxazepin-9-yl)amino)acetamide] here?
Answer: The concentration at 14 day was 4.8 nM.

Question: What about the concentration at 14 day ([1]; 0.3 mg/kg/day) of the same compound?
Answer: Its concentration at 14 day is 11 nM.

Question: What about the concentration at 14 day ([1]; 1 mg/kg/day) of the same compound?
Answer: Its concentration at 14 day is 34 nM.

Question: What about the Cmax ([1]; 0.1 mg/kg/day) of the same compound?
Answer: Its Cmax is 40 nM.

Question: What about the AUC(0-t) ([1]; 0.1 mg/kg/day) of the same compound?
Answer: The AUC(0-t) was 0.27 µM·h.

Question: And the Cmax ([1]; 0.3 mg/kg/day)?
Answer: The Cmax was 130 nM.

Question: What about the AUC(0-t) ([1]; 0.3 mg/kg/day) of the same compound?
Answer: The AUC(0-t) was 0.9 µM·h.

Question: What about the Cmax ([1]; 1 mg/kg/day) of the same compound?
Answer: The Cmax was 310 nM.

Question: And the AUC(0-t) ([1]; 1 mg/kg/day)?
Answer: The AUC(0-t) was 2.54 µM·h.

Question: What about the “Cmax D14, free” value ([1]; Compound 103 0.1 mg/kg/day QD) of the same compound?
Answer: Its value is 20 nM.

Question: And the “Exposure AUC0-24 hr, D14, free” value ([1]; Compound 103 0.1 mg/kg/day QD)?
Answer: Its value is 0.14 µM·h.

Question: What about the “Exposure multiples (free, AUC)” value ([1]; Compound 103 0.1 mg/kg/day QD) of the same compound?
Answer: Its value is 4.7 ×.

Question: And the “Exposure multiples (total, AUC)” value ([1]; Compound 103 0.1 mg/kg/day QD)?
Answer: The value was 0.2 ×.

Question: And the “Exposure multiples to CD69 IC50 (total, Cmin)” value (“Exposure multiples to CD69 IC50” below) ([1]; Compound 103 0.1 mg/kg/day QD)?
Answer: The value was 0.03×.

Question: And the “Cmax D14, free” value ([1]; Compound 103 0.3 mg/kg/day QD)?
Answer: Its value is 66 nM.

Question: What about the “Exposure AUC0-24 hr, D14, free” value ([1]; Compound 103 0.3 mg/kg/day QD) of the same compound?
Answer: The value was 0.46 µM·h.

Question: What about the “Exposure multiples (free, AUC)” value ([1]; Compound 103 0.3 mg/kg/day QD) of the same compound?
Answer: Its value is 15 ×.

Question: And the “Exposure multiples (total, AUC)” value ([1]; Compound 103 0.3 mg/kg/day QD)?
Answer: The value was 0.8 ×.

Question: What about the “Exposure multiples to CD69 IC50” value ([1]; Compound 103 0.3 mg/kg/day QD) of the same compound?
Answer: The value was 0.08×.

Question: What about the “Cmax D14, free” value ([1]; Compound 103 1 mg/kg/day QD) of the same compound?
Answer: Its value is 160 nM.

Question: And the “Exposure AUC0-24 hr, D14, free” value ([1]; Compound 103 1 mg/kg/day QD)?
Answer: The value was 1.29 µM·h.

Question: And the “Exposure multiples (free, AUC)” value ([1]; Compound 103 1 mg/kg/day QD)?
Answer: The value was 43 ×.

Question: What about the “Exposure multiples (total, AUC)” value ([1]; Compound 103 1 mg/kg/day QD) of the same compound?
Answer: Its value is 2.2 ×.

Question: And the “Exposure multiples to CD69 IC50” value ([1]; Compound 103 1 mg/kg/day QD)?
Answer: The value was 0.2×.

Question: What about the “Lymphoid depletion (summary)” value ([1]; multiple-day dosing in Beagle dogs (7-14 days), high exposure multiples) of the same compound?
Answer: The value was “only minor amounts of lymphoid depletion at high exposure multiples”.

Question: What about the “Pro-inflammatory signature (clinical pathology or anatomic pathology evaluation)” value ([1]; multiple-day dosing in Beagle dogs (7-14 days), 101 and 103 at >5-fold free exposure multiples over TGI60) of the same compound?
Answer: The value was “do not promote a pro-inflammatory signature”.

Question: What about the pEC50 [2] of the same compound?
Answer: Its pEC50 is 7.15.

Question: What about the pEC50 [3] of the same compound?
Answer: Its pEC50 is 8.39.

Question: And the fraction unbound [4]?
Answer: The fraction unbound was 0.507.

Question: And the fraction unbound [5]?
Answer: The fraction unbound was 0.03.

Question: What about the pEC50 [6] of the same compound?
Answer: Its pEC50 is 6.81.

Question: And the pEC50 [7]?
Answer: Its pEC50 is 8.42.

Question: And the pEC50 [8]?
Answer: Its pEC50 is 8.00.

Question: What about the pIC50 ([9]; Homo sapiens, whole-blood, uncorrected, read-out: a-IgM stimulated CD69 expression (whole-blood) IC50) of the same compound?
Answer: The pIC50 was 6.85.

Question: And the pIC50 ([9]; human whole-blood IC50 multiplied by measured human fu, read-out: B-cell a-IgM CD69 expression IC50, plasma-protein-binding corrected)?
Answer: The pIC50 was 7.12.

Question: What about the pEC50 [10] of the same compound?
Answer: The pEC50 was 7.55.

Question: What about the pKi [11] of the same compound?
Answer: The pKi was 10.22.

Question: And the “p110α levels (Western blot)” value [12]?
Answer: The value was “promote reduction of p110α levels selectively in PI3K mutant”.

Question: What about the pEC50 [13] of the same compound?
Answer: The pEC50 was 7.52.
